From patent US9050341B2, “Methods of treating drug resistant and other tumors by administering 6,7-dialkoxy quinazoline derivatives” (NATCO PHARMA LIMITED, priority 2009, dated 2015)

Legend:
Experiment in all cases: KinomeScan kinase profiling
Format in all cases: binding
CAMK2A = target: T1, CAMK2A (Homo sapiens, UniProt Q9UQM7)
T1 construct: purchased Ambit Biosciences Corp (KinomeScan); host or cells: E. coli host derived from the BL21 strain, T7 phage
Procedure, shortened: (§1)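 Kinases were expressed as T7 phage fusions in a BL21-derived E. coli host and the cleared lysates were used. Ligand beads were blocked with biotin and buffer (1% BSA, 0.05% Tween 20, 1 mM DTT). Compounds came from 40× DMSO stocks, and phage in the eluates was titred by qPCR.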

CDK3 = target: T2, CDK3 (Homo sapiens, UniProt Q00526)
T2 construct: host or cells: T7 phage in E. coli (BL21-derived)
Procedure, shortened: as §1

CLK3 = target: T3, CLK3 (Homo sapiens, UniProt P49761)
T3 construct: host or cells: T7 phage in E. coli (BL21-derived)
Procedure, shortened: as §1

EPHA4 = target: T4, EPHA4 (Homo sapiens, UniProt P54764)
T4 construct: host or cells: E. coli host derived from BL21, T7 phage lysate
Procedure, shortened: as §1

FGFR3 (G697C) = target: T5, FGFR3 (G697C) (Homo sapiens, UniProt P22607, G697C)
T5 construct: host or cells: E. coli host derived from BL21, infected with T7 phage
Procedure, shortened: as §1

MARK4 = target: T6, MARK4 (Homo sapiens, UniProt Q96L34)
T6 construct: host or cells: E. coli derived from BL21, infected with T7 phage
Procedure, shortened: as §1

PRKD2 = target: T7, PRKD2 (Homo sapiens, UniProt Q9BZL6)
T7 construct: purchased Ambit Biosciences Corp (KinomeScan); host or cells: E. coli host derived from BL21, infected with T7 phage
Procedure, shortened: as §1

RIPK4 = target: T8, RIPK4 (Homo sapiens, UniProt P57078)
T8 construct: host or cells: E. coli host derived from BL21, T7 phage lysate
Procedure, shortened: as §1

[1] = target: T9, RPS6KA2 (Kin.Dom.-2-C-terminal) (Homo sapiens, UniProt Q15349)
T9 construct: RPS6KA2 (Kin.Dom.-2-C-terminal); host or cells: E. coli host derived from BL21, T7 phage lysate
Procedure, shortened: as §1

STK36 = target: T10, STK36 (Homo sapiens, UniProt Q9NRP7)
T10 construct: host or cells: E. coli host derived from the BL21 strain, T7 phage lysate
Procedure, shortened: as §1

CAMK2G = target: T11, CAMK2G (Homo sapiens, UniProt Q13555)
T11 construct: purchased Ambit Biosciences Corp (KinomeScan); host or cells: E. coli host derived from the BL21 strain, T7 phage

CDK2 = target: T12, CDK2 (Homo sapiens, UniProt P24941)
T12 construct: host or cells: T7 phage in E. coli (BL21-derived)

DCAMKL1 = target: T13, DCAMKL1 (Homo sapiens, UniProt O15075)
T13 construct: purchased Ambit Biosciences Corp (KinomeScan); host or cells: T7 phage in E. coli host derived from BL21

DMPK2 = target: T14, DMPK2 (Homo sapiens, UniProt Q6DT37)
T14 construct: purchased Ambit Biosciences Corp (KinomeScan); host or cells: T7 phage in E. coli host derived from BL21

ERK2 = target: T15, ERK2 (Homo sapiens, UniProt P28482)
T15 construct: host or cells: E. coli host derived from BL21, T7 phage lysate

FGFR2 = target: T16, FGFR2 (Homo sapiens, UniProt P21802)
T16 construct: host or cells: E. coli host derived from BL21, infected with T7 phage

HPK1 = target: T17, HPK1 (Homo sapiens, UniProt Q92918)
T17 construct: host or cells: E. coli host derived from BL21, infected with T7 phage

MARK1 = target: T18, MARK1 (Homo sapiens, UniProt Q9P0L2)
T18 construct: host or cells: E. coli derived from BL21, infected with T7 phage

MLK3 = target: T19, MLK3 (Homo sapiens, UniProt Q16584)
T19 construct: host or cells: T7 phage in E. coli host derived from BL21

[2] = target: T20, RPS6KA2 (Kin.Dom.-1-N-terminal) (Homo sapiens, UniProt Q15349)
T20 construct: RPS6KA2 (Kin.Dom.-1-N-terminal); host or cells: E. coli host derived from BL21, T7 phage lysate

SRPK3 = target: T21, SRPK3 (Homo sapiens, UniProt Q9UPE1)
T21 construct: host or cells: E. coli host derived from the BL21 strain, T7 phage lysate

TAOK1 = target: T22, TAOK1 (Homo sapiens, UniProt Q7L7X3)
T22 construct: host or cells: E. coli host derived from the BL21 strain, T7 phage lysate

T17 sequence (Q92918 whole entry): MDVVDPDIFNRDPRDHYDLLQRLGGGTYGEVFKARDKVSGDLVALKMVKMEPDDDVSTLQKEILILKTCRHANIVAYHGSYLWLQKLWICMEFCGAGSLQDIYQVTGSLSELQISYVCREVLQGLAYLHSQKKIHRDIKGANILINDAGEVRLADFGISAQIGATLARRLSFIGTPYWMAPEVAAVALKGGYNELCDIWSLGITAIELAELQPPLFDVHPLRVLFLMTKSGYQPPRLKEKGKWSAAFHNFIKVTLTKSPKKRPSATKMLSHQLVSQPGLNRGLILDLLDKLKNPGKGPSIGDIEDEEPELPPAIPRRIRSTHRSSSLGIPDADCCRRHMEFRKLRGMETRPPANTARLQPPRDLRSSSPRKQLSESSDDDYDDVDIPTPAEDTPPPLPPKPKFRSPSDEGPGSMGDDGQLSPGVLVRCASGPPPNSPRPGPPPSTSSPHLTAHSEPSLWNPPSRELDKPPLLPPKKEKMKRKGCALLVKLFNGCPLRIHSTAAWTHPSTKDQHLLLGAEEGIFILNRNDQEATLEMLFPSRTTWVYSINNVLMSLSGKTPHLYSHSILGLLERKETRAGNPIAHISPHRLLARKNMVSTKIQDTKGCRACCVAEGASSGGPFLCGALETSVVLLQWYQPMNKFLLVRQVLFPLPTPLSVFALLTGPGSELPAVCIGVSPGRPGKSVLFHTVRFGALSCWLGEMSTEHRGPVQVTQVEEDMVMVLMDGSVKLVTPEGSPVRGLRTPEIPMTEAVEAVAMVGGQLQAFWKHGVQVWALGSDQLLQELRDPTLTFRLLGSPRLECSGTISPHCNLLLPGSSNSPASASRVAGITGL
T19 sequence (Q16584 whole entry): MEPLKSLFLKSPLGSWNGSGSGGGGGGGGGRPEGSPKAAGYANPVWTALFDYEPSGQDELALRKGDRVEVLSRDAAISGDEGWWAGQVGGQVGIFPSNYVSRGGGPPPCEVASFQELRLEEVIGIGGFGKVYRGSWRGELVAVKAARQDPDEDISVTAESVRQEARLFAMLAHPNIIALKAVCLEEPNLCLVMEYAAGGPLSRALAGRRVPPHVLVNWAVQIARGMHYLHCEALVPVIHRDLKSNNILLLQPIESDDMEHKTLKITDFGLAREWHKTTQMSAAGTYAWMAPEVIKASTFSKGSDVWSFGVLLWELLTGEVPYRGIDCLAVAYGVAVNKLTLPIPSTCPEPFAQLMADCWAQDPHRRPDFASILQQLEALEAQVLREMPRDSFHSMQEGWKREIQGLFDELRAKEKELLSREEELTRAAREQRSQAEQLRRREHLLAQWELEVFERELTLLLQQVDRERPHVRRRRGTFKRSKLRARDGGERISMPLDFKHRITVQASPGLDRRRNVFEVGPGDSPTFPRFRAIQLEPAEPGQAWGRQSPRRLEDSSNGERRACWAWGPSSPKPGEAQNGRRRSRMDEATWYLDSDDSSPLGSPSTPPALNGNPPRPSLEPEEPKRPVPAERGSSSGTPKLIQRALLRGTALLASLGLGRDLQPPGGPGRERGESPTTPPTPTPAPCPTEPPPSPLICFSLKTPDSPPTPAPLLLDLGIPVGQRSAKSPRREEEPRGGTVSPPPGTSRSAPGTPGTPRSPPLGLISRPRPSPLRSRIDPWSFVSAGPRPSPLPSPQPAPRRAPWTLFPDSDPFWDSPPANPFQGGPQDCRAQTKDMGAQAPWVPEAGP
T14 sequence (Q6DT37 whole entry): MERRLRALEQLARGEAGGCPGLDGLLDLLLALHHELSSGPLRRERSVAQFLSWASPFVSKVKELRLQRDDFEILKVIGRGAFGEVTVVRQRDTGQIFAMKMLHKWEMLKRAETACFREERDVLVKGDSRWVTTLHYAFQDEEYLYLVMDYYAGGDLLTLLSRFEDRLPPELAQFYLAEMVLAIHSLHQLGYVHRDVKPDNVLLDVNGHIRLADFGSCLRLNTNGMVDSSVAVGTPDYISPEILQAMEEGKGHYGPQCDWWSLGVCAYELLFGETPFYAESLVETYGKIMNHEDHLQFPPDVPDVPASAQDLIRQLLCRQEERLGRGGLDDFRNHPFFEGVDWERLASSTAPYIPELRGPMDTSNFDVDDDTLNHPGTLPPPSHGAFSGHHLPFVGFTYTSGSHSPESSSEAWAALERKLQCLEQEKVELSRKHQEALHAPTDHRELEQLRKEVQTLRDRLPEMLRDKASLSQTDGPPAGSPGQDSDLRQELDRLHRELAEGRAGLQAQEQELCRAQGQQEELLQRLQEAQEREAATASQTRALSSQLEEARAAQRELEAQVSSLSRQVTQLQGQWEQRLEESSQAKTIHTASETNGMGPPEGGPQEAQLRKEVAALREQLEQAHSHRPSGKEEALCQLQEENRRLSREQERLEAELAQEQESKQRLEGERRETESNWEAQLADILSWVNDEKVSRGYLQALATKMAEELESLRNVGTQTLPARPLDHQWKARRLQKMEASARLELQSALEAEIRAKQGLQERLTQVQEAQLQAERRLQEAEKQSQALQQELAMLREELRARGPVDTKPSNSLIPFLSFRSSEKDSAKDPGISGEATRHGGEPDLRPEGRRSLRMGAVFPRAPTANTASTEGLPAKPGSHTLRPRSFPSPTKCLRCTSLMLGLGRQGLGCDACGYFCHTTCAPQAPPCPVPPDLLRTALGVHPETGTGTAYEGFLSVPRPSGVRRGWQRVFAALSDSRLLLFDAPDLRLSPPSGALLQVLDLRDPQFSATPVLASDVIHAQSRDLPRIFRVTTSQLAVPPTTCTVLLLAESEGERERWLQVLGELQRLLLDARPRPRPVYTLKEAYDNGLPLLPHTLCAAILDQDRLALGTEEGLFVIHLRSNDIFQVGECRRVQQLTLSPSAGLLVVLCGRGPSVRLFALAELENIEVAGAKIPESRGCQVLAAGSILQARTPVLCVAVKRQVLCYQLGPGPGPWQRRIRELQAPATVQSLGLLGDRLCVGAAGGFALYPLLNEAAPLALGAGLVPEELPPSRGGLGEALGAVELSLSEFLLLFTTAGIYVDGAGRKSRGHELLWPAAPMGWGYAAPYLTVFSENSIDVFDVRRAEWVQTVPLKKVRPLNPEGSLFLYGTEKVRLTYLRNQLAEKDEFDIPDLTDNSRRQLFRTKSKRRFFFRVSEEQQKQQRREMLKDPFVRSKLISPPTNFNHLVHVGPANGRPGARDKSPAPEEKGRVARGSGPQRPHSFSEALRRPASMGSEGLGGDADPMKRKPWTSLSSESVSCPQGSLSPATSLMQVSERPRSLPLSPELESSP
T5 sequence (P22607 23-806 G697C): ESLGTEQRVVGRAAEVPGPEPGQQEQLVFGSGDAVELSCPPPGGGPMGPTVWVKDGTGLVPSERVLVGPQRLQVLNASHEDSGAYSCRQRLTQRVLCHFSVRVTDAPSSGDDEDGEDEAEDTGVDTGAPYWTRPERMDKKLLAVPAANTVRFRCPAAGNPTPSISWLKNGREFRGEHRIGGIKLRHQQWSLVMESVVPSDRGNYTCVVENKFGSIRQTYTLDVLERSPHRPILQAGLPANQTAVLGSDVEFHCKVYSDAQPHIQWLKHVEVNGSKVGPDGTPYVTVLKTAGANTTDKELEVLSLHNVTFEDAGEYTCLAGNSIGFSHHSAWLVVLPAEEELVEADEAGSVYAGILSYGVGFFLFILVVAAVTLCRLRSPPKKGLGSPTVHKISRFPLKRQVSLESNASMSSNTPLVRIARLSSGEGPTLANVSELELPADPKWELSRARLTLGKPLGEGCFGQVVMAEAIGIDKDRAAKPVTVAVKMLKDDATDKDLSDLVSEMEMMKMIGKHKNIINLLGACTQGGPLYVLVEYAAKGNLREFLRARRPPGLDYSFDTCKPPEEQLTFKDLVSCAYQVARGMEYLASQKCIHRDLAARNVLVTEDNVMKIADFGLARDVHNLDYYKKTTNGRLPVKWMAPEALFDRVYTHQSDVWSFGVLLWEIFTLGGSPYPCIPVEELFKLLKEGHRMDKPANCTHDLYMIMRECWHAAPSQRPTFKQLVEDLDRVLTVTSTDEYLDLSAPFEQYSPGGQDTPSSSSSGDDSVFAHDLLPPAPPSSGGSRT
T21 sequence (Q9UPE1 whole entry): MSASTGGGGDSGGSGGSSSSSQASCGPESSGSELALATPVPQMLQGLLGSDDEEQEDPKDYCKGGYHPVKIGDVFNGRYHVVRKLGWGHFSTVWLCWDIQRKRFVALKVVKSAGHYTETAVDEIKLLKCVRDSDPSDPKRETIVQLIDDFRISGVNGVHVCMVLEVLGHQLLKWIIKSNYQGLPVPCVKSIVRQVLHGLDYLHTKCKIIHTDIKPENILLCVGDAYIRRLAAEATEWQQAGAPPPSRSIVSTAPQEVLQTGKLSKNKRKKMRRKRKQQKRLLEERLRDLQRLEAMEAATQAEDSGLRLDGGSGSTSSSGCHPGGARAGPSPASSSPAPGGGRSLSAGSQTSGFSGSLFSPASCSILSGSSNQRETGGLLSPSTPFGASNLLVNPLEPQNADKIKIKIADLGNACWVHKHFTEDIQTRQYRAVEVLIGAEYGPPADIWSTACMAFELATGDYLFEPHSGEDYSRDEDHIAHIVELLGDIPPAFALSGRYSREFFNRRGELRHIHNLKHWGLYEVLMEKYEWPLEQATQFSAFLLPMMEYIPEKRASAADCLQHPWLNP
T20 sequence (Q15349 59-318 limits assumed): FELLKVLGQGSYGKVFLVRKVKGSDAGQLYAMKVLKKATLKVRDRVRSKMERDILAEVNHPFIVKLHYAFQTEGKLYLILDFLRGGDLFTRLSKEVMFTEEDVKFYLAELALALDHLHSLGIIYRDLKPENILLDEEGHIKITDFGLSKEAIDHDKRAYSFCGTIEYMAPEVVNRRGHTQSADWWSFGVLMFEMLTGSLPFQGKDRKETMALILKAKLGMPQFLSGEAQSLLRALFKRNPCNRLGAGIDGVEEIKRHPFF

## C#Cc1cccc(Nc2ncnc3cc(OC)c(OCCCN4CCOCC4)cc23)c1 [NRC-2694, N-(3-ethylnylphenyl)-7-methoxy-6-[3-(4-morpholinyl)propoxy]-4-quinazolinamine]
CAMK2A
  % Ctrl @ 10000 nM: 63 % Ctrl
CDK3
  % Ctrl @ 10000 nM: 91 % Ctrl
CLK3
  % Ctrl @ 10000 nM: 45 % Ctrl
EPHA4
  % Ctrl @ 10000 nM: 64 % Ctrl
FGFR3 (G697C)
  % Ctrl @ 10000 nM: 82 % Ctrl
MARK4
  % Ctrl @ 10000 nM: 100 % Ctrl
PRKD2
  % Ctrl @ 10000 nM: 0.4 % Ctrl
RIPK4
  % Ctrl @ 10000 nM: 96 % Ctrl
[1]
  % Ctrl @ 10000 nM: 78 % Ctrl
STK36
  % Ctrl @ 10000 nM: 4.6 % Ctrl
CAMK2G
  % Ctrl @ 10000 nM: 58 % Ctrl
CDK2
  % Ctrl @ 10000 nM: 94 % Ctrl
DCAMKL1
  % Ctrl @ 10000 nM: 92 % Ctrl
DMPK2
  % Ctrl @ 10000 nM: 61 % Ctrl
ERK2
  % Ctrl @ 10000 nM: 100 % Ctrl
FGFR2
  % Ctrl @ 10000 nM: 100 % Ctrl
HPK1
  % Ctrl @ 10000 nM: 47 % Ctrl
MARK1
  % Ctrl @ 10000 nM: 56 % Ctrl
MLK3
  % Ctrl @ 10000 nM: 72 % Ctrl
[2]
  % Ctrl @ 10000 nM: 70 % Ctrl
SRPK3
  % Ctrl @ 10000 nM: 38 % Ctrl
TAOK1
  % Ctrl @ 10000 nM: 54 % Ctrl
